According to patent US8003390B2, “Responses to singlet oxygen” (Wisconsin Alumni Research Foundation, priority 2005, dated 2011):
Read-outs that look alike come from different tables or passages of the source.

Legend:
[1] = test system: σ^E-dependent rpoE P1::lacZ reporter (σ^E activity); assay: Differential rate of β-galactosidase synthesis from the σ^E-dependent rpoE P1::lacZ reporter fusion; assay type: cell-based, Rhodobacter sphaeroides; conditions: for Rate (differential rate of β-galactosidase synthesis from the σ^E-dependent rpoE::lacZ fusion): WT cells, Aero (30% O2)
Protocol: Bacterial strains and plasmids: R. sphaeroides 2.4.1 (wild-type, WT), R. sphaeroides with a mutant ChrR (ΔChrR) (chrR-1::drf; see Newman et al., supra.) or R. sphaeroides with both a mutant σ^E (Δσ^E) and ΔChrR (TF18; rpoEchrR-1::drf, see Schilke B & Donohue T, “ChrR positively regulates transcription of the Rhodobacter sphaeroides cytochrome c2 gene,” J. Bacteriol. 177:1929-1937 (1995), incorporated herein by reference as if set forth in its entirety) were grown at 30° C. in Sistrom's succinate-based minimal medium A. Media used for growth of strains containing low-copy lacZ reporter plasmids was supplemented with 25 μg/ml kanamycin.
Growth conditions: For aerobic respiratory growth, 500 ml of media was bubbled with a mixture of 69% N2, 30% O2 and 1% CO2 in the dark. Conversely, for photosynthetic growth, 500 ml of media was bubbled with a mixture of 95% N2 and 5% CO2 in front of an incandescent light source (10 W/m^2 as measured with a Yellow-Springs-Kettering model 6.5A radiometer through a Corning […] filter).
(§1) To test the effects of ^1O2, photosynthetic cultures were exposed to aerobic growth conditions (69% N2, 30% O2 and 1% CO2) in the presence or in the absence of light (10 W/m^2). Where indicated, light was passed through a 1283 filter (Kopp Glass; Pittsburgh, Pa.) that impedes >99% of light at wavelengths <770 nm, but transmits >45% of light at 830 nm and >80% of light at 900 nm. When using methylene blue (Sigma-Aldrich; St. Louis, Mo.) to generate ^1O2, a final concentration of 1 μM was added to aerobic cultures in the presence or in the absence of incandescent light (10 W/m^2). To test the effects of other ROS, 0.5 mM H2O2, 1 mM diamide or 1 mM paraquat (Sigma-Aldrich) was added to aerobic cultures.
Determining promoter activity: Promoter activity was determined by measuring β-galactosidase activity from a low copy rpoE P1::lacZ reporter plasmid or a trxA::lacZ reporter plasmid. The promoter for the thioredoxin gene (trxA, −214 to +27 relative to the known transcription initiation site) was fused to lacZ and mobilized into R. sphaeroides.
β-galactosidase activity (units/ml of culture) was calculated as follows: (A420×1000)/(Cell volume in assay (ml)×Time of assay (min)). Culture density was typically monitored by measuring A600 in a BioSpec 1601 spectrophotometer (Schimatzu; Columbia, Md.). The density of cultures treated with methylene blue was monitored at 500 nm because methylene blue absorbs light between 609-668 nm. The differential rate of β-galactosidase synthesis was determined by calculating the slope from plots of enzyme activity (units/ml of culture) against optical density. All experiments were repeated a minimum of three times with differential rates of β-galactosidase synthesis typically deviating less than two-fold between experiments.

[2] = test system: trxA::lacZ reporter (trx promoter); assay type: cell-based, Rhodobacter sphaeroides
Protocol: To test the effects of ^1O2, photosynthetic cultures were exposed to aerobic growth conditions (69% N2, 30% O2 and 1% CO2) in the presence or in the absence of light (10 W/m^2). Where indicated, light was passed through a 1283 filter (Kopp Glass; Pittsburgh, Pa.) that impedes >99% of light at wavelengths <770 nm, but transmits >45% of light at 830 nm and >80% of light at 900 nm. When using methylene blue (Sigma-Aldrich; St. Louis, Mo.) to generate ^1O2, a final concentration of 1 μM was added to aerobic cultures in the presence or in the absence of incandescent light (10 W/m^2). […]
Determining promoter activity: Promoter activity was determined by measuring β-galactosidase activity from a low copy rpoE P1::lacZ reporter plasmid or a trxA::lacZ reporter plasmid. […]
β-galactosidase activity (units/ml of culture) was calculated as follows: (A420×1000)/(Cell volume in assay (ml)×Time of assay (min)). Culture density was typically monitored by measuring A600 in a BioSpec 1601 spectrophotometer (Schimatzu; Columbia, Md.). The density of cultures treated with methylene blue was monitored at 500 nm because methylene blue absorbs light between 609-668 nm. The differential rate of β-galactosidase synthesis was determined by calculating the slope from plots of enzyme activity (units/ml of culture) against optical density. […]

[3] = test system: R. sphaeroides Δσ^E mutant; assay: Growth and viability of aerobically grown cells treated with methylene blue in the presence of light; assay type: cell-based, Rhodobacter sphaeroides; conditions: methylene blue + light (1O2), FIG. 3
Protocol: as §1
All experiments were initiated when cultures reached ˜2×10^8 cfu/ml to minimize light or O2 limitation to photosynthetic and aerobic cells, respectively. To measure cell viability, samples were removed, diluted and plated in media supplemented with 25 μg/ml kanamycin to select for the rpoE P1::lacZ reporter plasmid. The whole cell abundance of carotenoids was measured as described in Cohen-Bazire G, et al., “Kinetic studies of pigment synthesis by non-sulfur purple bacteria,” J. Cell Physiol. 49:25-68 (1957). […]

[4] = test system: σ^E-dependent rpoE P1::lacZ reporter (σ^E activity); conditions: cited from earlier work
[5] = WT cells grown aerobically, 0.5 mM H2O2, 1 mM diamide or 1 mM paraquat, untreated = 11

C[n+]1ccc(-c2cc[n+](C)cc2)cc1 [Paraquat, paraquat]
rpoE P1::lacZ fusion (differential rate of β-galactosidase synthesis) [1, 5]: 6 | Change of differential rate of β-galactosidase synthesis from the σ^E-dependent reporter fusion compared to untreated cells ([1]; aerobic WT cells, 0.5 mM H2O2 or 1 mM paraquat): decreased | trxA::lacZ fusion (differential rate of β-galactosidase synthesis) ([2]; WT cells grown aerobically, 0.5 mM H2O2 or 1 mM paraquat, untreated = 185): 450

CN(C)c1ccc2nc3ccc(=[N+](C)C)cc-3sc2c1 [methylene blue]
Effect on Δσ^E mutant when carotenoids are low (OD500nm, cfu/ml) [3]: bacteriocidal | Increase of differential rate of β-galactosidase synthesis from rpoE P1::lacZ compared to aerobic cells grown without methylene blue ([1]; WT aerobic cells, 1 μM methylene blue, light and O2): ~20 fold | Increase of rate of β-galactosidase synthesis from rpoE P1::lacZ ([1]; WT aerobic cultures, methylene blue in the dark): two-fold | Rate (differential rate of β-galactosidase synthesis from the σ^E-dependent rpoE::lacZ fusion) ([1]; 1 μM methylene blue + light (generates 1O2)): 151 | Rate (differential rate of β-galactosidase synthesis from the σ^E-dependent rpoE::lacZ fusion) ([1]; 1 μM methylene blue, dark (no 1O2)): 8

CN(C)C(=O)/N=N/C(=O)N(C)C [Diamide, diamide]
rpoE P1::lacZ fusion (differential rate of β-galactosidase synthesis) [1, 5]: 3 | σ^E activity upon exposure to the compound (previous work) [4]: does not increase

OO [H2O2, hydrogen peroxide]
Change of differential rate of β-galactosidase synthesis from the σ^E-dependent reporter fusion compared to untreated cells [1]: no more than 1.2 fold | rpoE P1::lacZ fusion (differential rate of β-galactosidase synthesis) [1]: 13 | trxA::lacZ fusion (differential rate of β-galactosidase synthesis) [2]: 220
